Test results taken from PubChem BioAssay AID264 (DTP/NCI, 2004).
Several values for one entry are separate records, joined by “and”; a condition that tells them apart may be missing. Equal values may be shown once. Records with an inconclusive call do not appear. Numbered stars: 1 amine (or outer) side, 2 acyl side, 3 side chain; on linkers, the order of the positions; unused ones are H or OH. Square brackets hold non-standard residues; d marks the D form. Peptide text beside a SMILES is read from it. * marks the point of attachment. X2 = CCC(=O)CC1CC(C)CC(C(=O)[*:2])N1[*:1]; X1 = CCCCCCCCC(C)C(=O)*; Aib = CC(C)(N)C(=O)O; X3 = CC(CN(C)CCO)N*

Tested on: nude mice, LX-1 lung xenograft intrarenal, tumor weight T/C
Test: NCI In Vivo Anticancer Drug Screen. Data for tumor model Human Lung LX-1 Xenograft (intrarenal inoculation) in NU/NU Swiss (nude) mice
Settings: endpoint: mean tumor weight change, higher = larger tumour
Outline: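 In vivo, transplantable tumor; compound vs vehicle arms; tumor size measured; value = T/C.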

[1] = dose: 100.0 mg/kg/injection, schedule: Q04DX003 (sc), vehicle: saline with Tween-80
[2] = dose: 200.0 mg/kg/injection, schedule: Q04DX003 (sc), vehicle: saline with Tween-80
[3] = dose: 800.0 mg/kg/injection, schedule: Q04DX003 (sc), vehicle: saline with Tween-80
[4] = dose: 300.0 mg/kg/injection, schedule: Q04DX003 (sc), vehicle: Klucel (hydroxypropylcellulose) (HPC)
[5] = dose: 600.0 mg/kg/injection, schedule: Q04DX003 (sc), vehicle: Klucel (hydroxypropylcellulose) (HPC)
[6] = dose: 1200.0 mg/kg/injection, schedule: Q04DX003 (sc), vehicle: Klucel (hydroxypropylcellulose) (HPC)
[7] = dose: 1200.0 mg/kg/injection, schedule: Q04DX003 (sc), vehicle: suspension in saline
[8] = dose: 400.0 mg/kg/injection, schedule: Q01DX010 (sc), vehicle: saline with Tween-80
[9] = dose: 800.0 mg/kg/injection, schedule: Q01DX010 (sc), vehicle: saline with Tween-80
[10] = dose: 25.0 mg/kg/injection, schedule: Q04DX003 (sc), vehicle: saline with Tween-80
[11] = dose: 2400.0 mg/kg/injection, schedule: Q04DX003 (sc), vehicle: Klucel (hydroxypropylcellulose) (HPC)
[12] = dose: 100.0 mg/kg/injection, schedule: Q01DX010 (sc), vehicle: saline with Tween-80
[13] = dose: 200.0 mg/kg/injection, schedule: Q01DX010 (sc), vehicle: saline with Tween-80

Cc1ccccc1N(CC1CO1)CC1CO1 (stereo not given)
T/C (dose: 50.0 mg/kg/injection, schedule: Q01DX010 (sc), vehicle: suspension in saline): 33 % of control
T/C (dose: 100.0 mg/kg/injection, schedule: Q01DX010 (sc), vehicle: suspension in saline): 22 % of control
T/C (dose: 200.0 mg/kg/injection, schedule: Q01DX010 (sc), vehicle: suspension in saline): 104 % of control
T/C (dose: 400.0 mg/kg/injection, schedule: Q01DX010 (sc), vehicle: suspension in saline): 59 % of control

c1cc(NC2CCCCC2)ccc1CN1CCOCC1
T/C (dose: 50.0 mg/kg/injection, schedule: Q01DX010 (sc), vehicle: saline + Tween-80 + alcohol): 38 % of control
T/C (dose: 100.0 mg/kg/injection, schedule: Q01DX010 (sc), vehicle: saline + Tween-80 + alcohol): 74 % of control
T/C (dose: 800.0 mg/kg/injection, schedule: Q01DX010 (sc), vehicle: saline + Tween-80 + alcohol): 84 % of control
T/C (dose: 1600.0 mg/kg/injection, schedule: Q01DX010 (sc), vehicle: saline + Tween-80 + alcohol): 84 % of control

COC(=O)Nc1cccc(-c2nc3ccc(NC(=O)OC)cc3c(=O)n2-c2ccccc2)c1
T/C (dose: 25.0 mg/kg/injection, schedule: Q01DX010 (sc), vehicle: Klucel (hydroxypropylcellulose) (HPC)): 99 % of control
T/C (dose: 50.0 mg/kg/injection, schedule: Q01DX010 (sc), vehicle: Klucel (hydroxypropylcellulose) (HPC)): 160 % of control
T/C (dose: 100.0 mg/kg/injection, schedule: Q01DX010 (sc), vehicle: Klucel (hydroxypropylcellulose) (HPC)): 93 % of control
T/C (dose: 200.0 mg/kg/injection, schedule: Q01DX010 (sc), vehicle: Klucel (hydroxypropylcellulose) (HPC)): 84 % of control

CCCCCCCCC(C)C(=O)N1CCCC1C(=O)N1C(CC(=O)CC)CC(C)CC1C(=O)NC(C)C(=O)NC(C)(C)C(=O)NC(C)(C)C(=O)NC(C(=O)NC(C)C(=O)NC(C)(C)C(=O)NC(C)(C)C(=O)NC(C)CN(C)CCO)C(C)CC (stereo not given) (X1-P[X2]A[Aib][Aib]IA[Aib][Aib]-X3; configuration not given here)
T/C (dose: 5.0 mg/kg/injection, schedule: Q04DX003 (sc), vehicle: Klucel (hydroxypropylcellulose) (HPC)): 270 % of control

C=C1C(C)C2C(Cc3ccccc3)NC(=O)C23C(OC(C)=O)C=CC(C)(O)C(=O)C(C)C/C=C/C3C1O (stereo not given)
T/C (dose: 7.5 mg/kg/injection, schedule: Q04DX003 (sc), vehicle: Klucel (hydroxypropylcellulose) (HPC)): 54 % of control
T/C (dose: 15.0 mg/kg/injection, schedule: Q04DX003 (sc), vehicle: Klucel (hydroxypropylcellulose) (HPC)): 75 % of control

C/C=C/c1cc2n(c1)C(=O)c1cc(OC3OC(C)C(NC)C(C)(O)C3O)c(C)c(O)c1NC2O (stereo not given)
T/C (dose: 50.0 micrograms/kg/injection, schedule: Q04DX003 (sc), vehicle: saline): 54 % of control
T/C (dose: 200.0 micrograms/kg/injection, schedule: Q04DX003 (sc), vehicle: saline): 92 % of control
T/C (dose: 400.0 micrograms/kg/injection, schedule: Q04DX003 (sc), vehicle: saline): 91 % of control

CCN(CC)CCNc1ccc(C)c2sc3ccc(O)cc3c(=O)c12
T/C (dose: 300.0 mg/kg/injection, schedule: Q04DX003 (sc), vehicle: saline with Tween-80): 71 % of control
T/C (dose: 600.0 mg/kg/injection, schedule: Q04DX003 (sc), vehicle: saline with Tween-80): 98 % of control
T/C (dose: 1200.0 mg/kg/injection, schedule: Q04DX003 (sc), vehicle: saline with Tween-80): 83 % of control
T/C (dose: 2400.0 mg/kg/injection, schedule: Q04DX003 (sc), vehicle: saline with Tween-80): 52 % of control

CCCCOCN(COCCCC)C(C)Cc1ccccc1 (stereo not given)
T/C [1]: 71 % of control
T/C [2]: 85 % of control
T/C [3]: 121 % of control

CC(=O)N(C)C
T/C (dose: 450.0 mg/kg/injection, schedule: Q01DX010 (sc), vehicle: saline): 70 % of control

C(C#CCN1CCOCC1)#CCN1CCOCC1
T/C [4]: 124 % of control
T/C [5]: 76 % of control
T/C [6]: 84 % of control

C=C(C(=O)O)C(N)C(=O)O (stereo not given)
T/C [7]: 76 % of control

Clc1ccc(C(c2ccccc2Cl)C(Cl)Cl)cc1 (stereo not given)
T/C [8]: 80 % of control
T/C [9]: 40 % of control
T/C (dose: 800.0 mg/kg/injection, schedule: Q01DX010 (sc), vehicle: saline): 69 % of control
T/C (dose: 1600.0 mg/kg/injection, schedule: Q01DX010 (sc), vehicle: saline with Tween-80): 56 % of control
T/C (dose: 1600.0 mg/kg/injection, schedule: Q01DX010 (sc), vehicle: saline): 55 % of control
T/C (dose: 3200.0 mg/kg/injection, schedule: Q01DX010 (sc), vehicle: saline with Tween-80): 24 % of control
T/C (dose: 3200.0 mg/kg/injection, schedule: Q01DX010 (sc), vehicle: saline): 80 % of control
T/C (dose: 6400.0 mg/kg/injection, schedule: Q01DX010 (sc), vehicle: saline): 73 % of control

Cc1c2c(ccc3ccccc32)c[n+]2ccccc12
T/C (dose: 3.13 mg/kg/injection, schedule: Q01DX010 (sc), vehicle: saline): 59 % of control
T/C (dose: 6.25 mg/kg/injection, schedule: Q01DX010 (sc), vehicle: saline): 83 % of control
T/C (dose: 12.5 mg/kg/injection, schedule: Q01DX010 (sc), vehicle: saline): 38 % of control

COC(=O)Nc1ccc(Cc2ccc(NC(=O)OC)cc2)cc1
T/C [9]: 68 % of control

CN=C(N)N/N=C(\C)c1ccc2c(c1)Cc1cc(/C(C)=N/NC(N)=NC)ccc1-2
T/C (dose: 12.5 mg/kg/injection, schedule: Q04DX003 (sc), vehicle: saline with Tween-80): 99 % of control
T/C [10]: 90 % of control
T/C (dose: 50.0 mg/kg/injection, schedule: Q04DX003 (sc), vehicle: saline with Tween-80): 67 % of control
T/C [1]: 69 % of control

C[C@]12CC[C@@H]3c4ccc(O)cc4CC[C@H]3[C@@H]1CC[C@@H]2O
T/C [4]: 120 % of control
T/C [5]: 101 % of control
T/C [6]: 103 % of control
T/C [11]: 53 % of control

C[C@]12CC[C@@H]3c4ccc(OC(=O)Cc5ccc(N(CCCl)CCCl)cc5)cc4CC[C@H]3[C@@H]1CC[C@@H]2OC(=O)Cc1ccc(N(CCCl)CCCl)cc1
T/C [2]: 83 % of control
T/C (dose: 400.0 mg/kg/injection, schedule: Q04DX003 (sc), vehicle: saline with Tween-80): 107 % of control
T/C [3]: 116 % of control
T/C (dose: 1600.0 mg/kg/injection, schedule: Q04DX003 (sc), vehicle: saline with Tween-80): 90 % of control

C[N+](C)(C)c1ncnc2nc[nH]c12
T/C (dose: 50.0 mg/kg/injection, schedule: Q01DX010 (sc), vehicle: saline): 78 % of control
T/C (dose: 100.0 mg/kg/injection, schedule: Q01DX010 (sc), vehicle: saline): 116 % of control
T/C (dose: 200.0 mg/kg/injection, schedule: Q01DX010 (sc), vehicle: saline): 58 % of control

CC12CCC3C(CCC4CC(OC(=O)Cc5ccc(N(CCCl)CCCl)cc5)CCC43C)C1CCC(=O)N2 (stereo not given)
T/C [10]: 43 % of control and 66 % of control
T/C [2]: 8 % of control and 9 % of control

COC1/C=C/C=C(/C)Cc2cc(O)c(Cl)c(c2)N(C)C(=O)CC(OC(=O)C(C)C)C2(C)OC2C(C)C2CC1(O)NC(=O)O2 (stereo not given)
T/C (dose: 1.0 mg/kg/injection, schedule: Q04DX003 (sc), vehicle: saline + alcohol): 81 % of control
T/C (dose: 2.0 mg/kg/injection, schedule: Q04DX003 (sc), vehicle: saline + alcohol): 67 % of control
T/C (dose: 4.0 mg/kg/injection, schedule: Q04DX003 (sc), vehicle: saline + alcohol): 58 % of control

CN(C1=NS(=O)(=O)N=C(N(C)c2ccccc2)O1)c1ccccc1
T/C [4]: 66 % of control
T/C [5]: 61 % of control
T/C [6]: 79 % of control
T/C [11]: 91 % of control

CCOC(=O)c1ccc(NC(=O)Nc2nccs2)cc1
T/C [12]: 99 % of control
T/C [13]: 107 % of control
T/C [8]: 92 % of control
T/C [9]: 66 % of control

CC(=O)OCC1OC(n2ccc(N)nc2=O)C(OC(C)=O)C1OC(C)=O (stereo not given)
T/C (dose: 300.0 mg/kg/injection, schedule: Q04DX003 (sc), vehicle: suspension in saline): 156 % of control
T/C (dose: 600.0 mg/kg/injection, schedule: Q04DX003 (sc), vehicle: suspension in saline): 84 % of control
T/C [7]: 23 % of control
T/C (dose: 2400.0 mg/kg/injection, schedule: Q04DX003 (sc), vehicle: suspension in saline): 94 % of control

CCCCCCCC(=O)[O][Hg][CH2]C1COC([CH2][Hg][O]C(=O)CCCCCCC)CO1 (stereo not given)
T/C (dose: 6.25 mg/kg/injection, schedule: Q01DX010 (sc), vehicle: saline with Tween-80): 224 % of control
T/C (dose: 25.0 mg/kg/injection, schedule: Q01DX010 (sc), vehicle: saline with Tween-80): 106 % of control
T/C (dose: 50.0 mg/kg/injection, schedule: Q01DX010 (sc), vehicle: saline with Tween-80): 75 % of control and 79 % of control
T/C [12]: 61 % of control
T/C [13]: 42 % of control
T/C [8]: 24 % of control
